Measured values taken from PMC7366380, “Discovery of a Potent and Selective Covalent Inhibitor and Activity-Based Probe for the Deubiquitylating Enzyme UCHL1, with Antifibrotic Activity” (Journal of the American Chemical Society, 2020).
pIC50: −log10 of the molar value. Several values for one entry are separate records, joined by “and”; a condition that tells them apart may be missing. Identical values can stand only once.

Assays:
[1] = target: DUBs and other proteins in HEK293 cells (Homo sapiens, UniProt O15372); assay: In-cell proteome-wide competitive ABPP, HEK293: other DUBs and proteins; details: for Log2 reporter intensity values, EIF3H: 20 nM ABP 2 (10 min), no competitor, TMT replicates
[2] = target: DUBs and other proteins in HEK293 cells (Homo sapiens, UniProt Q92905); assay: as above; details: for Log2 reporter intensity values, COPS5: 20 nM ABP 2 (10 min), no competitor, TMT replicates
[3] = target: DUBs and other proteins in HEK293 cells (Homo sapiens, UniProt Q96FW1); assay: as above; details: replicates A-C
[4] = target: T1, DUBs and other proteins in HEK293 cells (Homo sapiens, UniProt Q53GS9); assay: as above; details: replicates A-C
T1 sequence (Q53GS9 1-565): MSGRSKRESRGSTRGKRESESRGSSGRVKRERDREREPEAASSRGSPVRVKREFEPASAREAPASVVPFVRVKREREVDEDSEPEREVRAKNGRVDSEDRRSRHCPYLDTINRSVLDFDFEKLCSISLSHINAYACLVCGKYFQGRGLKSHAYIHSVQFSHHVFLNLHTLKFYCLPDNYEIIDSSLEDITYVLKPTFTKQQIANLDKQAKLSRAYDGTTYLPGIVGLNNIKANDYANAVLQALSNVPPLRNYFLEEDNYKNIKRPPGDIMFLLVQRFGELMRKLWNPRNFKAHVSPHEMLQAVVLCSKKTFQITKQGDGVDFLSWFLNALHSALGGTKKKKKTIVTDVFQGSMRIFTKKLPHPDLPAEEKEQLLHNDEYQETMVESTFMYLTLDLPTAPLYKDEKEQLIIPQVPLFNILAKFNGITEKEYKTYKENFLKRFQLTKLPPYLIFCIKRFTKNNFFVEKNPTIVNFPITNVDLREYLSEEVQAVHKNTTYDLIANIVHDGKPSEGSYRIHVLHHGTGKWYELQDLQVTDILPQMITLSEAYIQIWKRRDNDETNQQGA

[5] = target: DUBs and other proteins in HEK293 cells (Homo sapiens, UniProt Q6P2Q9); assay: as above; details: replicates A-C
[6] = target: T2, TRABID (Homo sapiens, UniProt Q9UGI0); assay: Biochemical DUB selectivity profiling assay: TRABID; details: Ub-Rho110 400 nM, buffer B; read-out: Biochemical IC50 range, TRABID
T2 sequence (Q9UGI0 1-708): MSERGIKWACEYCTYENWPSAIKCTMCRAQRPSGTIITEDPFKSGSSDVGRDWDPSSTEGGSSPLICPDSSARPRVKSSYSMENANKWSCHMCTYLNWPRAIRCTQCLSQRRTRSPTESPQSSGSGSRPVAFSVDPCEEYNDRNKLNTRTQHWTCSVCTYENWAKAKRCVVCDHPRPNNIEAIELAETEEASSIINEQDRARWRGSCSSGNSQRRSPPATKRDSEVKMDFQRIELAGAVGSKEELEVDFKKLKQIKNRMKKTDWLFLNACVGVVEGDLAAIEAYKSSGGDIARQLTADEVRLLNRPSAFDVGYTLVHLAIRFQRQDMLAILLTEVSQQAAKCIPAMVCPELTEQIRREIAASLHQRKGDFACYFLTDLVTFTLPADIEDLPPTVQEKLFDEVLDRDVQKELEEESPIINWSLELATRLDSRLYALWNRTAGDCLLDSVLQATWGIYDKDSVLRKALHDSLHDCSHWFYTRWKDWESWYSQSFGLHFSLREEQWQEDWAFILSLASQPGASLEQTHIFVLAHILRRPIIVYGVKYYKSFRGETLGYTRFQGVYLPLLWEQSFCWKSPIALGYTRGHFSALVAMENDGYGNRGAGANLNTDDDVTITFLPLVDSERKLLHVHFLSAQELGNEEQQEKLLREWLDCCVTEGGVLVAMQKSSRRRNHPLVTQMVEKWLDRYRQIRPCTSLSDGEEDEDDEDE
Description: DUB Assay Substrate Substrate
Buffer Concentration (nM) […]
Sepharose® 4B resin (GE Healthcare).
10 kDa molecular weight cut-off (MWCO)).
Fractions containing protein
Protein concentration was […]
reaction volume of 21 μL. […]
compound (final concentration 5 nM).
IC50 values were determined
Biochemical DUB selectivity profiling assays […]
in 40 µL total reaction volume.

[7] = 20 nM ABP 2 alone, DMSO substract (FC), replicates A-C
[8] = 20 nM ABP 2 alone, DMSO substract (FC)

Sequence of DUBs and other proteins in HEK293 cells (Homo sapiens, UniProt Q96FW1) (Q96FW1 whole entry): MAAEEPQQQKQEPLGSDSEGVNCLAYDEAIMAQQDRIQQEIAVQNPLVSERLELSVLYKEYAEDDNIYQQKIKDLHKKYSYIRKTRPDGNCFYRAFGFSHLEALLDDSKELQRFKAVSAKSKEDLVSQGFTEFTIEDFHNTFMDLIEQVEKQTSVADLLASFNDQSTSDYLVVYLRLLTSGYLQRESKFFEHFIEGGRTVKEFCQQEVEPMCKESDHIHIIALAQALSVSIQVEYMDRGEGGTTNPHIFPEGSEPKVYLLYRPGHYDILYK
Sequence of DUBs and other proteins in HEK293 cells (Homo sapiens, UniProt Q92905) (Q92905 whole entry): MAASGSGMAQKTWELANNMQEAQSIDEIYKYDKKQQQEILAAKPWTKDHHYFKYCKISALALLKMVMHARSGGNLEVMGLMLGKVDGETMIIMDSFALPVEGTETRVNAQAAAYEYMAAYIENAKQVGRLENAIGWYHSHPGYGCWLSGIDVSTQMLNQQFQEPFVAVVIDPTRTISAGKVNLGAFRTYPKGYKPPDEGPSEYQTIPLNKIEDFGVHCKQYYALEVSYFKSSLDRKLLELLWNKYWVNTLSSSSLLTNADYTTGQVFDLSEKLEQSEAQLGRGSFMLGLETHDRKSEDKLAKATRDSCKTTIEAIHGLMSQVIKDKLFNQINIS
Sequence of DUBs and other proteins in HEK293 cells (Homo sapiens, UniProt O15372) (O15372 whole entry): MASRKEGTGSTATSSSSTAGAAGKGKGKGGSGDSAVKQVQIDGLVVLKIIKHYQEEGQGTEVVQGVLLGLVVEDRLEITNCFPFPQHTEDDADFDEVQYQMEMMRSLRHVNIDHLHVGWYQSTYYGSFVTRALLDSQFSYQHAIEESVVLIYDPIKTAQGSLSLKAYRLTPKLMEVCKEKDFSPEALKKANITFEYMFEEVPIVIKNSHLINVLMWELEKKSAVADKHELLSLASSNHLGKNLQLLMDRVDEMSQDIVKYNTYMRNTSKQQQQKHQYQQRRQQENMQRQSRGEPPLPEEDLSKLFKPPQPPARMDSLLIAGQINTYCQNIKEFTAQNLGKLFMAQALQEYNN

- Log2 reporter intensity values, EIF3H ([1]; All values): 0.02449 and 0.02357 and 0.02975
- Log2 reporter intensity values, EIF3H ([1]; DMSO subtracted): -0.005103 and -0.006015 and 0.0001635
- Log2 reporter intensity values: EIF3H [1, 7]: 0.9965 and 0.9958 and 1
- Log2 t-test Difference ([1]; EIF3H, ABP 2 - 20 nM): -0.003651
- Log2 reporter intensity values, COPS5 ([2]; All values): 0.09368 and -0.02632 and 0.2453
- Log2 reporter intensity values, COPS5 ([2]; DMSO subtracted): 0.1518 and 0.03179 and 0.3034
- Log2 reporter intensity values: COPS5 [2, 7]: 1.111 and 1.022 and 1.234
- Log2 t-test Difference ([2]; COPS5, ABP 2 - 20 nM): 0.1623
- Log2 reporter intensity values: OTUB1 [3, 8]: 1.065 and 1.087 and 1.08
- Log2 reporter intensity values ([3]; OTUB1, 20 nM ABP 2, DMSO subtracted): 0.1206 and 0.06511 and 0.07959
- Log2 reporter intensity values: USP39 [4, 8]: 0.9355 and 0.9539 and 0.9302
- Log2 reporter intensity values: PRPF8 [5, 8]: 0.8057 and 0.8767 and 0.8316
- pIC50 [6]: < 5.00
Structure (SMILES): C#Cc1cnc2[nH]cc(-c3cccc4c3CCN4C(=O)[C@@H]3CCCN3C#N)c2c1 [Compound 2]
- Log2 reporter intensity values ([1]; EIF3H, 20 nM ABP 2, DMSO subtracted, replicates A-C): -0.005103 and -0.006015 and 0.0001635 and -0.003675 and -0.004305 and -3.08E-05
- Log2 reporter intensity values ([2]; COPS5, 20 nM ABP 2, DMSO subtracted, replicates A-C): 0.1518 and 0.03179 and 0.3034 and 0.1109 and 0.0222 and 0.2339
- Log2 reporter intensity values ([4]; USP39, 20 nM ABP 2, DMSO subtracted): -0.09621 and -0.06804 and -0.1044 and -0.06512 and -0.04668 and -0.07041
- Log2 reporter intensity values ([5]; PRPF8, 20 nM ABP 2, DMSO subtracted): -0.3117 and -0.1898 and -0.2661 and -0.1946 and -0.1687
